One data set concerns norepinephrine. As to the kind of experiment: Norepinephrine levels in brain tissue after in vivo treatment. Set-up: species or system rat. How it is done: Sprague Dawley rats were treated as described above. Animals were sacrificed on day 15 after being tested for locomotor activity. PFC sections were harvested on ice and frozen at −80° C. until being assayed for norepinephrine levels.

The subject of data set [1] is Nicotinic receptor binding sites. As to the kind of experiment: [3H] cytisine binding in brain membrane homogenates after in vivo treatment. Set-up: species or system rat. As to conditions: for increase in cytisine binding in the VTA: vs saline control, only chronic injection of NT69L significant (P<0.05). How it is done:
(§1) Animals and treatment protocol: Male Sprague-Dawley rats weighing 200–250 g were housed in a temperature-controlled room with free access to food and water under artificial 12 hour light/dark cycle. All tests were conducted during the light cycle. The animals received an intraperitoneal (i.p.) injection of either NT69L (1 mg/kg) or an equivalent volume (100 μl) of saline. Thirty minutes after the first injection, the rats received subcutaneous (s.c.) injections of saline or nicotine (0.35 mg/kg). These injections were repeated once a day for 15 days. On days 1 and 15, rats were placed in a Plexiglass Opto-Varimax Minor motility chamber (Columbus Instruments, Columbus, Ohio) and allowed to acclimate for one hour. Baseline activity was recorded for 30 minutes for each rat. The rats then were injected with either saline or NT69L and replaced in the chamber. After 30 minutes, each rat was injected with either saline or nicotine and returned to the chamber. Activity was recorded for 60 minutes. After testing for locomotor activity on day 15, animals were sacrificed. Brain sections were dissected on ice and maintained on dry ice until they were frozen at −80° C., at which temperature they were stored until being assayed. [^3H] cytisine binding: Nicotinic receptor binding sites in membrane homogenates of frozen tissue were measured using [^3H] cytisine according to the method of Pabreza et al. [(1991) Mol. Pharmacol. 39:9–12]. Frozen tissue was resuspended in 50 mM Tris-HCl buffer (pH 7.4), homogenized with a Brinkmann Polytron (setting 6), and washed twice in fresh Tris buffer by centrifugation at 35000×g. The resulting pellets were resuspended in buffer. Aliquots of homogenates were added to tubes containing [^3H] cytisine in the presence or absence of 100 μM nicotine and incubated in a final volume of 250 μl for 75 minutes at 4° C. The binding reactions were terminated by filtration through GF/B filter paper that was mounted on a Brandel cell harvester. Filters were presoaked in 0.5% polyethylenimine to reduce binding of radioligand to the filter. The filters were washed 3 times with cold 0.9% NaCl and counted in a scintillation counter. The data were analyzed using the PC version of the ligand software program. Specific binding was defined as the difference between binding in the presence and absence of 100 μM nicotine.
Sprague Dawley rats were maintained and treated as described above. Animals were sacrificed on day 15 after being tested for locomotor activity. PFC and VTA sections were harvested on ice and frozen at −80° C until being assayed for cytisine binding as described in Example 1.

Data set [2] relates to dopamine and its metabolites. As to the kind of experiment: Dopamine and metabolites in striatum and PFC by HPLC-EC after in vivo treatment. Further details: species or system rat. How it is done: Striatal dopamine: Brain dopamine levels were analyzed using high performance liquid chromatography with electrochemical detection (HPLC-EC, ESA, Inc., Chemsford, Mass.), according to previously described procedures (Kilts et al. (1981) J. Chromatogr. 225:347–357; and Krstulovic (1982) J. Chromatogr. 229:1–34). Rats were sacrificed by decapitation, brains were removed, and the striatal tissue was weighed and homogenized in 10 volumes of ice-cold 0.1 N perchloric acid containing 10 mM EDTA. Tissue homogenates were centrifuged at 26,000×g for 10 minutes at 4° C. A 20 μl aliquot of the diluted supernatant was injected onto an HPLC system with an MD-150/RP-C18 column (ESA). The mobile phase contained 10% acetonitrile with 75 mM sodium dihydrogen phosphate, 1.7 mM 1-octane sulfonic acid sodium salt, 0.01% triethylamine, and 25 μM EDTA, pH 3.0. The flow rate was maintained at 0.5 ml/minute. The detector potentials were set at: 350 mV; E1:−175 mV and E2:250 mV. The concentration of dopamine in each sample was quantified by comparison of area under curve (AUC) between samples and external standards run on the same day.
Sprague Dawley rats were treated as described above. Animals were sacrificed on day 15 after being tested for locomotor activity. Striatal and PFC tissues were harvested on ice and frozen at −80° C. until being assayed for dopamine metabolism as detailed in Example 1.

The next data set relates to rats. The experiment in a line: Nicotine sensitization, weekly treatment for six weeks, locomotor activity. The class given is in vivo, rat. How it is done: as §1
For a longer term study of nicotine sensitization, rats were divided into seven groups that were treated once a week for six weeks with saline or NT69L followed by a challenge with saline or 0.35 mg/kg nicotine. These experiments allowed examination of both the initiation and expression phases of sensitization. Group 1 received saline/saline each week. Group 2 received saline/saline for the first five weekly treatments, and saline/nicotine in the sixth week. Group 3 received saline/nicotine each week. Group 4 received NT69L/saline each week. Group 5 received NT69L/nicotine each week. Group 6 received NT69L/nicotine for the first five weekly treatments, and saline/nicotine in the sixth week. Group 7 received saline/nicotine for the first five weekly treatments, and NT69L/nicotine in the sixth week. Locomotor activity was measured after each weekly treatment, as described in Example 1.

In a further data set the test system is Sprague Dawley rats. The experiment in a line: Nicotine-induced locomotor activity, daily treatment for 15 days. It is filed as in vivo, rat. How it is done: as §1
Sprague Dawley rats were divided into seven groups and injected daily for 14 days with the treatment listed outside the parentheses under each pair of columns in FIG. 1. On day 15, the rats were injected with the treatment listed inside the parentheses under each pair of columns. Locomotor activity was recorded on days 1 and 15. Rats were placed in a motility chamber for one hour for acclimation. A 30 minute baseline was recorded for each rat. The rats were injected with either saline or NT69L and placed in the chamber for 30 minutes. Each rat was then removed from the chamber, injected with either nicotine or saline, and returned to the chamber. Activity was recorded for 60 minutes, and is shown in counts per 10 minute interval.

The test system of a further data set is dopamine D2 receptor. The experiment in a line: Dopamine D2 receptor binding assay ([3H] raclopride) in striatum after in vivo treatment. Further details: species or system rat. How it is done:
Dopamine D2 receptor binding assay: Homogenized brain tissue was assayed for dopamine D2 receptor binding by the method of Bowden et al. [(1997) Brain Res. 752:227–233]. Briefly, brain tissue was homogenized in buffer (50 mM Tris-HCl, 5 mM KCl and 120 mM NaCl, pH 7.5) and centrifuged at 26,000×g for 10 minutes at 4° C. Pellets were resuspended in buffer to 1 mg/10 μl and immediately used for binding. Aliquots of […] tissue homogenates were added to 25 PI [^3H] raclopride and 25 μl buffer (for total binding) or 25 μl of […] sulipride (for nonspecific binding) in a total volume of 250 μl, and incubated at room temperature for 90 minutes. Membrane-bound radioactivity was recovered by filtration under vacuum through Whatman GF/B filters using a Brandel cell harvester. Filters were washed with ice-cold PBS and radioactivity was determined by liquid scintillation counting. Protein levels were quantified using the Micro BCA assay (Pierce, Rockford, Ill.).

Some results are limits rather than exact numbers.

Turning to `CN1CCCC1c1cccnc1` (stereo not shown) [nicotine], the “increase of norepinephrine levels in the PFC” value in the data set on norepinephrine (acute and chronic treatment with nicotine vs saline control, P<0.05) is 213–300%. In addition, in data set [1] (fifteen daily injections of nicotine vs saline control, P<0.05), the “increase of cytisine binding in prefrontal cortex” value turned out to be 62%. Besides, the “cytisine binding in the PFC” value in data set [1] (single nicotine injection on day 15 vs sal/sal(sal/sal)) is recorded as “tended to increase cytisine binding in the PFC, but not to a significant level”. Also, in data set [1], the “increase in cytisine binding in the VTA” value came out at 35%. In data set [2] (PFC, fifteen daily injections of nicotine), the “levels of dopamine and its metabolites as compared to saline control” value came to 232%. Besides, the “increase in levels of dopamine and its metabolites” value in data set [2] (PFC, single injection of nicotine, P<0.05) is on record as 400%. In addition, the “increase in striatal dopamine levels” value in data set [2] (striatum, single injection of nicotine vs sal/sal(sal/sal), P<0.05) worked out at 192%. Moreover, the “locomotor activity after nicotine challenge without NT69L” value in the data set on rats (nicotine 0.35 mg/kg in the sixth week only (group 2)) is recorded as “resulted in hyperactivity”; in the data set on rats (nicotine challenge each week (group 3)) it was “resulted in increased activity”. Besides, in the data set with Sprague Dawley rats (daily nicotine injections, day 1 vs. day 15), the “increase in peak activity (sensitization)” value was above 60%. Further, in the data set with Sprague Dawley rats (single injection of nicotine 0.35 mg/kg s.c. vs control group sal/sal(sal/sal), P<0.001), the “peak level of locomotor activity” value is on record as “significantly increased”.

For the compound “N-methyl-Arg-Lys-Pro-L-neo-Trp-tert-Leu-Leu [NT69L]”, the “reduction in norepinephrine levels” value with norepinephrine (PFC, daily injections of NT69L, single injection of nicotine) worked out at 40%. In addition, the “norepinephrine in the striatum between treatment groups” value with norepinephrine (striatum) is “No significant differences”. The “reduction of cytisine binding caused by acute nicotine injection” value in data set [1] (PFC, NT69L daily for 15 days, acute, but not chronic, nicotine) is listed as 62%. The “reduction of the increase in cytisine binding caused by 15 daily injections of nicotine” value in data set [1] (PFC, acute injection of NT69L prior to nicotine on day fifteen) stood at 65%. In addition, in data set [1], the “increase in cytisine binding in the VTA” value amounted to 35%. The “dopamine (D2) receptor binding in striatum across nicotine and NT69L treatment groups” value with dopamine D2 receptor is given as “No difference”. Further, the “lowering of the nicotine-induced increase in dopamine” value in data set [2] (PFC, injection of NT69L for 15 days) is listed as 62%; in data set [2] (PFC, pretreating with NT69L before nicotine injection on day 15), 28%. For the same compound, the “effect on dopamine levels in the striatum” value in data set [2] (pretreatment with NT69L) is “did not significantly affect”. In the data set on rats (NT69L before nicotine challenge each week (group 5)), the “effect on nicotine-induced hyperactivity” value was “largely prevented the hyperactivity”. Also, the “activity after NT69L in the sixth week” value in the data set with rats (five weeks nicotine without NT69L, then NT69L/nicotine in week six (group 7)) is given as “significant decrease in activity”. In the data set with rats (weekly treatment for six weeks), the “initiation and expression of nicotine sensitization” value is “effectively blocked”. Besides, the “reduction of nicotine-induced hyperactivity” value with Sprague Dawley rats (acute injection of NT69L 1 mg/kg i.p. on day 1, 30 minutes prior to nicotine, P<0.001) is recorded as 24%. In addition, in the data set on Sprague Dawley rats (daily injection of NT69L), the “reduction of the magnitude of locomotor sensitization” value is reported as 24%. The “locomotor activity 69/sal vs sal/sal groups (sedation)” value with Sprague Dawley rats (day 1, NT69L 1 mg/kg i.p. without nicotine) is recorded as “no significant difference”. In the data set on Sprague Dawley rats (sal/nic(sal/nic) vs. 69/nic(69/nic), P<0.05), the “activity compared with saline after fifteen days of treatment” value was “statistically significant reduction in activity”. Further, the “sensitized nicotine-induced activity after NT69L” value in the data set on Sprague Dawley rats (single injection of NT69L 30 minutes prior to nicotine on the fifteenth day of nicotine administration, P<0.001) is 10 % of control.

Values taken from US7087575B2, “Treating the effect of nicotine” (Mayo Foundation for Medical Education and Research, priority 2002, dated 2006).
